Results reported in US12557545B2, “Compound and organic light emitting device comprising the same” (LG Chem, Ltd., priority 2020, dated 2026).

assay: Solubility experiment in cyclohexanone; type: physicochemical; settings: dissolved in cyclohexanone (CHON) under normal temperature/pressure; whether 0.1 wt % or more was dissolved
Experimental: In order to confirm the solubility in the solvent used in the solution process of the compounds prepared in the Preparation Examples and the comparative compounds, each of them was dissolved in the solvent cyclohexanone (CHON) under normal temperature/pressure conditions, and it was confirmed whether 0.1 wt % or more was dissolved.

| SMILES | Solvent CHON (solubility) |
| --- | --- |
| Cc1cccc(N(c2ccc3c4c5ccc6c(c5ccc4n(-c4ccccc4)c3c2)c2ccc(-c3cccc(-c4ccc5c7c8ccc9c(c8ccc7n(-c7ccccc7)c5c4)c4ccc(N(c5cccc(C)c5)c5cccc7c5oc5ccccc57)cc4n9-c4ccccc4)c3)cc2n6-c2ccccc2)c2cccc3c2oc2ccccc23)c1 [Compound 15] | ◯ (0.1 wt. % or more soluble) |
| Cc1cccc(N(c2ccc3c4c5ccc6c(c5ccc4n(-c4ccccc4)c3c2)c2ccc(N(c3ccc4c5c7ccc8c(c7ccc5n(-c5ccccc5)c4c3)c3ccc(N(c4cccc(C)c4)c4cccc5c4oc4ccccc45)cc3n8-c3ccccc3)c3cccc4c3oc3ccccc34)cc2n6-c2ccccc2)c2cccc3c2oc2ccccc23)c1 [Compound 3] | ◯ (0.1 wt. % or more soluble) |
| Cc1cccc(N(c2ccc3c4c5ccc6c(c5ccc4n(-c4ccccc4)c3c2)c2ccc(N(c3cccc(C)c3)c3cccc4c3oc3ccccc34)cc2n6-c2ccccc2)c2ccc3c4c5ccc6c(c5ccc4n(-c4ccccc4)c3c2)c2ccc(N(c3cccc(C)c3)c3cccc4c3oc3ccccc34)cc2n6-c2ccccc2)c1 [Compound 2] | ◯ (0.1 wt. % or more soluble) |
| Cc1cccc(N(c2cccc3c2oc2ccccc23)c2cccc3c2c2c4ccc5c(c4ccc2n3-c2ccccc2)c2c(N(c3ccc(C(C)(C)C)cc3)c3cccc4c3c3c6ccc7c(c6ccc3n4-c3ccccc3)c3c(N(c4cccc(C)c4)c4cccc6c4oc4ccccc46)cccc3n7-c3ccccc3)cccc2n5-c2ccccc2)c1 [Compound 21] | ◯ (0.1 wt. % or more soluble) |
| Cc1cccc(N(c2ccc3c4c5ccc6c(c5ccc4n(-c4ccccc4)c3c2)c2ccc(N(c3ccc(-c4cc5ccccc5o4)cc3)c3ccc4c5c7ccc8c(c7ccc5n(-c5ccccc5)c4c3)c3ccc(N(c4cccc(C)c4)c4cccc5c4oc4ccccc45)cc3n8-c3ccccc3)cc2n6-c2ccccc2)c2cccc3c2oc2ccccc23)c1 [Compound 5] | ◯ (0.1 wt. % or more soluble) |
| Cc1cccc(N(c2ccc3c(c2)c2c4ccc5c(c4ccc2n3-c2ccccc2)c2cc(N(c3ccc(C(C)(C)C)cc3)c3ccc4c(c3)c3c6ccc7c(c6ccc3n4-c3ccccc3)c3cc(N(c4cccc(C)c4)c4cccc6c4oc4ccccc46)ccc3n7-c3ccccc3)ccc2n5-c2ccccc2)c2cccc3c2oc2ccccc23)c1 [Compound 19] | ◯ (0.1 wt. % or more soluble) |
| c1ccc(N(c2ccccc2)c2ccc3c4c5ccc6c(c5ccc4n(-c4ccccc4)c3c2)c2ccc(N(c3ccc4cc(-c5cc7ccccc7o5)ccc4c3)c3ccc4c5c7ccc8c(c7ccc5n(-c5ccccc5)c4c3)c3ccc(N(c4ccccc4)c4ccccc4)cc3n8-c3ccccc3)cc2n6-c2ccccc2)cc1 [Compound 12] | ◯ (0.1 wt. % or more soluble) |
| Cc1cccc(N(c2ccc3c4c5ccc6c(c5ccc4n(-c4ccccc4)c3c2)c2ccc(N(c3ccccc3)c3ccc4c5c7ccc8c(c7ccc5n(-c5ccccc5)c4c3)c3ccc(N(c4cccc(C)c4)c4cccc5c4oc4ccccc45)cc3n8-c3ccccc3)cc2n6-c2ccccc2)c2cccc3c2oc2ccccc23)c1 [Compound 4] | ◯ (0.1 wt. % or more soluble) |
| CC(C)(C)c1ccc(N(c2ccc3c4c5ccc6c(c5ccc4n(-c4ccccc4)c3c2)c2ccc(N(c3ccccc3)c3ccc4cc(-c5cc7ccccc7o5)ccc4c3)cc2n6-c2ccccc2)c2ccc3c4c5ccc6c(c5ccc4n(-c4ccccc4)c3c2)c2ccc(N(c3ccccc3)c3ccc4cc(-c5cc7ccccc7o5)ccc4c3)cc2n6-c2ccccc2)cc1 [Compound 10] | ◯ (0.1 wt. % or more soluble) |
| CC1(C)c2cc(-c3cc4ccccc4o3)ccc2-c2ccc(N(c3ccccc3)c3ccc4c5c6ccc7c(c6ccc5n(-c5ccccc5)c4c3)c3ccc(N(c4ccccc4)c4ccc5c(c4)C(C)(C)c4cc(-c6cc8ccccc8o6)ccc4-5)cc3n7-c3ccccc3)cc21 [Compound J, reference compound] | X (0.1 wt. % or more insoluble) |
| CC(C)(C)c1ccc(N(c2ccc(C(C)(C)C)cc2)c2ccc3c4c5ccc6c(c5ccc4n(-c4ccccc4)c3c2)c2ccc(N(c3ccc(-c4cc5ccccc5o4)cc3)c3ccc4c5c7ccc8c(c7ccc5n(-c5ccccc5)c4c3)c3ccc(N(c4ccc(C(C)(C)C)cc4)c4ccc(C(C)(C)C)cc4)cc3n8-c3ccccc3)cc2n6-c2ccccc2)cc1 [Compound 8] | ◯ (0.1 wt. % or more soluble) |
| CC(C)(C)c1ccc(N(c2ccc3c4c5ccc6c(c5ccc4n(-c4ccccc4)c3c2)c2ccc(N(c3ccccc3)c3ccc4ccccc4c3)cc2n6-c2ccccc2)c2ccc3c4c5ccc6c(c5ccc4n(-c4ccccc4)c3c2)c2ccc(N(c3ccccc3)c3ccc4ccccc4c3)cc2n6-c2ccccc2)cc1 [Compound 13] | ◯ (0.1 wt. % or more soluble) |
| Cc1cccc(N(c2ccc3c4c5ccc6c(c5ccc4n(-c4ccccc4)c3c2)c2ccc(-c3ccc4c5c7ccc8c(c7ccc5n(-c5ccccc5)c4c3)c3ccc(N(c4cccc(C)c4)c4cccc5c4oc4ccccc45)cc3n8-c3ccccc3)cc2n6-c2ccccc2)c2cccc3c2oc2ccccc23)c1 [Compound 16] | ◯ (0.1 wt. % or more soluble) |
| Cc1cccc(N(c2ccc3c4c5ccc6c(c5ccc4n(-c4ccccc4)c3c2)c2ccc(N(c3ccc(C(C)(C)C)cc3)c3ccc4c5c7ccc8c(c7ccc5n(-c5ccccc5)c4c3)c3ccc(N(c4cccc(C)c4)c4cccc5c4oc4ccccc45)cc3n8-c3ccccc3)cc2n6-c2ccccc2)c2cccc3c2oc2ccccc23)c1 [Compound 1] | ◯ (0.1 wt. % or more soluble) |
| CC(C)(C)c1ccc(N(c2ccc3c4c5ccc6c(c5ccc4n(-c4ccccc4)c3c2)c2ccc(N(c3ccccc3)c3ccccc3)cc2n6-c2ccccc2)c2ccc3c4c5ccc6c(c5ccc4n(-c4ccccc4)c3c2)c2ccc(N(c3ccccc3)c3ccccc3)cc2n6-c2ccccc2)cc1 [Compound 11] | ◯ (0.1 wt. % or more soluble) |
| Cc1cccc(N(c2ccc3c4c5ccc6c(c5ccc4n(-c4ccccc4)c3c2)c2ccc(Oc3ccc4c5c7ccc8c(c7ccc5n(-c5ccccc5)c4c3)c3ccc(N(c4cccc(C)c4)c4cccc5c4oc4ccccc45)cc3n8-c3ccccc3)cc2n6-c2ccccc2)c2cccc3c2oc2ccccc23)c1 [Compound 17] | ◯ (0.1 wt. % or more soluble) |
| CC(C)(C)c1ccc(N(c2ccc(C(C)(C)C)cc2)c2ccc3c4c5ccc6c(c5ccc4n(-c4ccccc4)c3c2)c2ccc(N(c3ccc4c5c7ccc8c(c7ccc5n(-c5ccccc5)c4c3)c3ccc(N(c4ccc(C(C)(C)C)cc4)c4ccc(C(C)(C)C)cc4)cc3n8-c3ccccc3)c3cccc4c3oc3ccccc34)cc2n6-c2ccccc2)cc1 [Compound 7] | ◯ (0.1 wt. % or more soluble) |
| CC(C)(C)c1ccc(N(c2ccc3c4c5ccc6c(c5ccc4n(-c4ccccc4)c3c2)c2ccc(N(c3ccc(-c4ccc5c(c4)c4ccccc4n5-c4ccccc4)cc3)c3ccc4ccccc4c3)cc2n6-c2ccccc2)c2ccc3c4c5ccc6c(c5ccc4n(-c4ccccc4)c3c2)c2ccc(N(c3ccc(-c4ccc5c(c4)c4ccccc4n5-c4ccccc4)cc3)c3ccc4ccccc4c3)cc2n6-c2ccccc2)cc1 [Compound 9] | ◯ (0.1 wt. % or more soluble) |
| CC(C)(C)c1ccc(N(c2ccc(C(C)(C)C)cc2)c2ccc3c4c5ccc6c(c5ccc4n(-c4ccccc4)c3c2)c2ccc(N(c3ccc(C(C)(C)C)cc3)c3ccc4c5c7ccc8c(c7ccc5n(-c5ccccc5)c4c3)c3ccc(N(c4ccc(C(C)(C)C)cc4)c4ccc(C(C)(C)C)cc4)cc3n8-c3ccccc3)cc2n6-c2ccccc2)cc1 [Compound 6] | ◯ (0.1 wt. % or more soluble) |
| Cc1cccc(N(c2ccc3c4c5ccc6c(c5ccc4n(-c4ccccc4)c3c2)c2ccc(-c3ccc(-c4ccc5c7c8ccc9c(c8ccc7n(-c7ccccc7)c5c4)c4ccc(N(c5cccc(C)c5)c5cccc7c5oc5ccccc57)cc4n9-c4ccccc4)cc3)cc2n6-c2ccccc2)c2cccc3c2oc2ccccc23)c1 [Compound 14] | ◯ (0.1 wt. % or more soluble) |
